Here are results for one molecule from patent US20260207575A1, “P[…] THE TREATMENT OF JUVENILE HUNTINGTON DISEASE” (Prilenia Neurotherapeutics Ltd., priority 2022, published 2026).

The subject of assay [1] is HD patients with CAG repeat length >=50. To be noted: for TFC LS Mean change vs placebo: 45 mg bid (n=1) vs placebo (n=4); for TFC LS Mean change from baseline: n=1. How it is done: (§1) All patients began treatment with a 2-week titration period (45 mg once a day) followed by full-dose treatment for 63-78 weeks.
(§2) Efficacy was evaluated using the following clinical endpoints: Change from Baseline to Week 78 in composite UHDRS (cUHDRS) total score, Total Functional Capacity (UHDRS-TFC) score and Stroop Word Reading (SWR) testing for cognitive assessment.
The UHDRS-TFC score is a commonly used and regulatory-accepted clinical scale used for assessing the functional capacity of subjects with HD and monitoring the disease's progression and severity over time. This score ranges from 0 to 13 and higher scores indicate better functional capacity. A score of 13 means that the individual is entirely functional with no indications of impairment, while a score of 0 indicates complete dependence on others for daily activities.

The test system is the same in assay [2]. Conditions: for cUHDRS LS Mean change vs placebo: 45 mg bid (n=1) vs placebo (n=4); for cUHDRS LS Mean change from baseline: n=1. How it is done: as §1, §2
The composite Unified Huntington's Disease Rating Scale (cUHDRS) is a clinical scale used for evaluating the severity and progression of Huntington's disease (HD).
The cUHDRS is a composite scale assessing overall progression of independent key aspects of HD: functional ability, motor symptoms, and cognitive function. cUHDRS comprises four subscales: Total Functional Capacity (TFC), Total Motor Score (TMS), and 2 cognitive measures: the Symbol-Digit Modality Test (SDMT), and Stroop Word Reading (SWR) Test.
The cUHDRS score is a validated scale used for tracking disease progression and evaluating treatment effectiveness in subjects with HD. Higher scores on cUHDRS indicates better overall disease state. By measuring multiple domains, the cUHDRS provides a global and comprehensive assessment of the disease stage.

Assay [3] has the same test system. To be noted: 45 mg bid; up to 78 weeks; CAG >=50. How it is done: as §1, §2
The test system of the next assay is dopamine D2/D3 receptors. Conditions: low-affinity binding; cited from earlier work.
The mark [4] stands for this setting: 45 mg bid, up to 78 weeks, CAG >=50.
[5] abbreviates: Week 26, 45 mg bid, CAG >=50, positive change = improvement.

The structures appear in SMILES notation. Read-outs that look alike come from different tables or passages of the source.

Take `CCCN1CCC(c2cccc(S(C)(=O)=O)c2)CC1` [Pridopidine, 4-[3-(methylsulfonyl)phenyl]-1-propyl-piperidine]: the “effect on TFC / functional capacity compared to placebo (in words)” value in assay [1] (setting [4]) was “marked improvement”. The “TFC LS Mean change vs placebo” value in assay [1] (Week 26) amounted to 2.99 points; in assay [1] (Week 39), 3.06 points; in assay [1] (Week 52), 3.00 points; in assay [1] (Week 65) it was 2.90 points; in assay [1] (Week 78) it was 3.45 points. Moreover, the “TFC LS Mean change from baseline” value is 2.96 in assay [1] (setting [5]); 2.96 in assay [1] (Week 39, 45 mg bid, CAG >=50); 2.91 in assay [1] (Week 52, 45 mg bid, CAG >=50); 2.61 in assay [1] (Week 65, 45 mg bid, CAG >=50); 2.93 in assay [1] (Week 78, 45 mg bid, CAG >=50). For the same molecule, the “effect on cUHDRS / disease progression compared to placebo (in words)” value in assay [2] (setting [4]) is “marked improvement”. Further, the “cUHDRS LS Mean change vs placebo” value in assay [2] (Week 26) stood at 2.52 points; in assay [2] (Week 39) it was 2.66 points; in assay [2] (Week 52), 2.49 points; in assay [2] (Week 65), 2.32 points; in assay [2] (Week 78) it was 2.52 points. Moreover, the “cUHDRS LS Mean change from baseline” value is 1.79 in assay [2] (setting [5]); 1.83 in assay [2] (Week 39, 45 mg bid, CAG >=50); 1.67 in assay [2] (Week 52, 45 mg bid, CAG >=50); 1.41 in assay [2] (Week 65, 45 mg bid, CAG >=50); 1.42 in assay [2] (Week 78, 45 mg bid, CAG >=50). For the same molecule, the “effect on SWR / cognitive function compared to placebo (in words)” value in assay [3] is listed as “marked improvement”. Further, in the assay with dopamine D2/D3 receptors, the “binding affinity to dopamine D2/D3 receptors” value is recorded as “in the micromolar range”.
